Several values for one entry are separate records, joined by “and”; a condition that tells them apart may be missing. Equal entries are not always repeated. Where two headings read alike, the source gives them in different places. Numbered stars: 1 amine (or outer) side, 2 acyl side, 3 side chain; on linkers, the order of the positions; unused ones are H or OH. Square brackets hold non-standard residues; d marks the D form. Peptide text beside a SMILES is read from it. ξ: configuration not given here. X1 = CN(C(Cc1cn(Cc2ccc(Br)cc2)c2ccccc12)C(=O)[*:2])[*:1]; ξAla(CF3) = NC(CC(F)(F)F)C(=O)O; X2 = N#CCCC(O[*:1])C(=O)[*:2]; NMeL = CN[CH](CC(C)C)C(=O)O; NMeA = CN[CH](C)C(=O)O
Assays:
[1] = target: T1, Sec61α (HEK 293 FRT) (Homo sapiens, UniProt P61619); experiment: Luciferase reporter assay in parental HEK 293 FRT cells; assay type: cell-based; conditions: HEK293, 24 h
T1 construct: host or cells: HEK293 Flp-In T-REx (parental, 'HEK 293 FRT')
T1 sequence (P60468 whole entry): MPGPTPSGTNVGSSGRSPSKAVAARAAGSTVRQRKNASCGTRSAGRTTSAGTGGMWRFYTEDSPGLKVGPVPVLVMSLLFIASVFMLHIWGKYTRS
T1 sequence (P60059 whole entry, further chain): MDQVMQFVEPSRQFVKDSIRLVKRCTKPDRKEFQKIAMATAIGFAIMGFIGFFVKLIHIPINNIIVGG
T1 sequence (P61619 whole entry): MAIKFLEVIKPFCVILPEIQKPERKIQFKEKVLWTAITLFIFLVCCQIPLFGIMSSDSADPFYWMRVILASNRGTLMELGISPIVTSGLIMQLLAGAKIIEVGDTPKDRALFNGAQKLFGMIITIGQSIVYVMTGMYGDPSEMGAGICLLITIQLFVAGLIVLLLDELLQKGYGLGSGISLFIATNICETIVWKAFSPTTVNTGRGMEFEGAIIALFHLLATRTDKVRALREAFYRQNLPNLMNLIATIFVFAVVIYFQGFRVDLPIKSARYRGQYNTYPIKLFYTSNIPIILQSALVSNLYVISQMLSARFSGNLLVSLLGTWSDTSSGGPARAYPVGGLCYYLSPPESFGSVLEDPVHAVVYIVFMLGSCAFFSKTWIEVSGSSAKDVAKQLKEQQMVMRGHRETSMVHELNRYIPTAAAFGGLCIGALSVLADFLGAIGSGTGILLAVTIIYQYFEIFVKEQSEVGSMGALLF
Source text: All mutants were sequence verified.

[2] = tested on: human peripheral blood mononuclear cells (PBMCs); experiment: Cytokine secretion assay, stimulated human PBMCs (MSD U-PLEX); assay type: cell-based; conditions: for IC50: 24 h, tested 0.025–25,000 nM
[3] = tested on: Sec61 WT TNFa(FL) reporter cells; experiment: CTG (CellTiter-Glo) viability of TNFa(FL) reporter cells expressing Sec61 WT; assay type: cell-based; conditions: replicate columns
Source text: Supplement 41589_2023_1326_MOESM7_ESM.xlsx, sheet "Panel B" | column: Sec61 WT - CTG (TNFa(FL))

[4] = tested on: SARS-CoV-2; conditions: Vero cells
[5] = tested on: Vero E6 cells; conditions: Mock infected 48 h
[6] = target: Sec61α T86M (Canis lupus familiaris, UniProt P38377, T86M); experiment: Luciferase reporter assay in HEK293 cells expressing Sec61α T86M; conditions: HEK293, 24 h, read-out: luciferase reporter activity (% of no-drug control), T86M
Sequence of Sec61α T86M (P60468 whole entry): as the sequence (P60468 whole entry) above
Sequence of Sec61α T86M (P38377 whole entry T86M): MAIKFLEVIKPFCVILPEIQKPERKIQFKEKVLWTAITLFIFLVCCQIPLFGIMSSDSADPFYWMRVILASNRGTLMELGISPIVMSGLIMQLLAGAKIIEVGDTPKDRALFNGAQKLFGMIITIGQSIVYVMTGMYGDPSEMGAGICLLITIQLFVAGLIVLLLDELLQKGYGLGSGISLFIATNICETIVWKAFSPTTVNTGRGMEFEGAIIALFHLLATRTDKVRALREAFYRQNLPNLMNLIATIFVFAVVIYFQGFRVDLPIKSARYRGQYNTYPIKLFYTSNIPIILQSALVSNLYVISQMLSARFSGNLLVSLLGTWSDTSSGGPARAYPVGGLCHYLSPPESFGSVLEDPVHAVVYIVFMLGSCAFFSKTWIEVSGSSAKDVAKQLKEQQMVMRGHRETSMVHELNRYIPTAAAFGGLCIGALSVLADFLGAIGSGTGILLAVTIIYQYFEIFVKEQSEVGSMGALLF
Sequence of Sec61α T86M (P60059 whole entry, further chain): as the sequence (P60059 whole entry, further chain) above
Method: (§1) Data are mean values ± s.d. from n = 2 independent experiments.
(§2) HEK293T cells (0.3 × 10^6) were seeded per well of a six-well plate and incubated at 37 °C in 5% CO2 for 24 h to adhere. Each of the two wells was transfected with 1 µg of plasmid encoding a luciferase with the signal peptide of either VCAM1 or pPL using PEI in a 5:1 ratio, after which cells were returned to the incubator for a further 24 h. Transfected cells were then resuspended following trypsinization, cell count estimated using a TC20 Automated Cell Counter (BioRad) and diluted to seed a 96-well flat-bottom plate with 1.6 × 10^4 cells per well. […] Cells were then incubated for a further 24 h, after which the luciferase-containing media were transferred to a clean 96-well plate and stored at −20 °C. Luciferase activity of the media was estimated using a Gaussia-GLOW Juice Luciferase Assay kit from PJK Biotech GmbH as per the manufacturer’s instructions. Luminescence was measured using an EnSpire Multimode plate reader (PerkinElmer). Background luminescence from media placed in a well with neither cells nor drug was subtracted from all values, and measurements were calculated as a percentage of luminescence intensity of a well expressing the appropriate luciferase construct in the absence of any drug. Curves were fitted, and IC50 values were calculated using GraphPad Prism 8.
(§3) HEK293 Flp-In T-REx cells (Thermo Fisher Scientific, R78007) were cultured in Dulbecco’s modified Eagle’s medium (Gibco) supplemented with 10% FBS (Gibco) at 37 °C in a humidified 5% CO2 atmosphere. Approximately 0.3 µg of pOG44 and 1 µg of targeting construct plasmids were mixed in 250 µl of OptiMEM (Thermo Fisher Scientific, 51985-026). A total of 3 µl (3 µg) Lipofectamine3000 transfection reagent was then added to the DNA mix and incubated at room temperature for 20 min, and the whole mixture was added to the cells. Cells were exposed to 100 µg ml^−^1 hygromycin B (Invitrogen) and 10 µg ml^−^1 blasticidin for 3–4 weeks until the appearance of resistant colonies. Colonies were expanded into T75 flasks and induced with doxycycline (Sigma-Aldrich, D9891) at a concentration of 1–5 µg ml^−^1 for 48 h. Cells were collected, and total RNA was extracted followed by cDNA amplification and sequencing of Sec61 with gene-specific PCR primers to confirm. Cells were then used for the luciferase reporter assays as above.
(§4) Data are mean values ± SD and are representative of n = 2 independent experiments.

[7] = target: Sec61α N300M (Canis lupus familiaris, UniProt P38377, N300M); experiment: Luciferase reporter assay in HEK293 cells expressing Sec61α N300M; conditions: HEK293, 24 h, read-out: luciferase reporter activity (% of no-drug control), N300M
Sequence of Sec61α N300M (P38377 whole entry N300M): as the sequence (P38377 whole entry T86M) above, with M86T, N300M counted along it
Sequence of Sec61α N300M (P60468 whole entry, further chain): as the sequence (P60468 whole entry) above
Sequence of Sec61α N300M (P60059 whole entry, further chain): as the sequence (P60059 whole entry, further chain) above
Method: as §1, §2, §3, §4

[8] = target: Wild Type Sec61α (Canis lupus familiaris, UniProt P38377); experiment: Luciferase reporter assay in HEK293 Flp-In T-REx cells expressing Wild Type Sec61α; set-up: remaining activity: dose or concentration left out as unconfirmed; conditions: HEK293, 24 h, read-out: luciferase reporter activity (% of no-drug control), Wild Type
Sequence of Wild Type Sec61α (P38377 whole entry): as the sequence (P38377 whole entry T86M) above, with M86T counted along it
Sequence of Wild Type Sec61α (P60468 whole entry, further chain): as the sequence (P60468 whole entry) above
Sequence of Wild Type Sec61α (P60059 whole entry, further chain): as the sequence (P60059 whole entry, further chain) above
Method: as §1, §2, §3, §4

Question: Which remaining activity at 0.00152 µM ([1]; Drug nM (log10) 0.18303, read-out: luciferase reporter activity (% of no-drug control)) does the source give for `CC(C)CC1NC(=O)C(Cc2cn(Cc3ccc(Br)cc3)c3ccccc23)N(C)C(=O)C(CC(F)(F)F)NC(=O)C(CC(C)C)N(C)C(=O)C(CC(F)(F)F)NC(=O)C(CCC#N)OC(=O)C(C)N(C)C1=O` (stereo not shown) [KZR-8445] (cyclo([X1]L[NMeA][X2][ξAla(CF3)][NMeL][ξAla(CF3)]); configuration not given here) here?
Answer: 88.7%

Question: And the remaining activity at 0.00457 µM ([1]; Drug nM (log10) 0.660151, read-out: luciferase reporter activity (% of no-drug control))?
Answer: 75.3%

Question: What about the remaining activity at 0.04115 µM ([1]; Drug nM (log10) 1.61439, read-out: luciferase reporter activity (% of no-drug control)) of the same compound?
Answer: 27%

Question: And the remaining activity at 0.1235 µM ([1]; Drug nM (log10) 2.09151, read-out: luciferase reporter activity (% of no-drug control))?
Answer: 12.8%

Question: And the remaining activity at 0.37 µM ([1]; Drug nM (log10) 2.56864, read-out: luciferase reporter activity (% of no-drug control))?
Answer: 4.89%

Question: What about the remaining activity at 1.111 µM ([1]; Drug nM (log10) 3.04576, read-out: luciferase reporter activity (% of no-drug control)) of the same compound?
Answer: 2.41%

Question: What about the remaining activity at 3.33 µM ([1]; Drug nM (log10) 3.52288, read-out: luciferase reporter activity (% of no-drug control)) of the same compound?
Answer: 2.03%

Question: And the remaining activity at 10 µM ([1]; Drug nM (log10) 4, read-out: luciferase reporter activity (% of no-drug control))?
Answer: 2.36%

Question: What about the remaining activity at 0.00050805 µM ([1]; Drug nM (log10) -0.29409, read-out: luciferase reporter activity (% of no-drug control)) of the same compound?
Answer: 92.4%

Question: And the IC50 ([2]; Homo sapiens, PBMC, LPS-stimulation, read-out: IC50, IL-1β secretion)?
Answer: > 25000 nM

Question: What about the IC50 ([2]; Homo sapiens, PBMC, LPS-stimulation, read-out: IC50, IL-23 secretion) of the same compound?
Answer: 167 nM

Question: What about the IC50 ([2]; Homo sapiens, PBMC, anti-CD3/CD28-stimulation, read-out: IC50, GM-CSF secretion) of the same compound?
Answer: 189 nM

Question: What about the IC50 ([2]; Homo sapiens, PBMC, anti-CD3/CD28-stimulation, read-out: IC50, IL-2 secretion) of the same compound?
Answer: 42.2 nM

Question: What about the IC50 ([2]; Homo sapiens, PBMC, anti-CD3/CD28-stimulation, read-out: IC50, TNFα secretion) of the same compound?
Answer: 42.6 nM

Question: And the IC50 ([2]; LPS-stimulation, read-out: IC50, IL-23 secretion)?
Answer: 233 nM and 188 nM and 190 nM

Question: What about the “IC50s, secretion of six of seven tested cytokines” value ([2]; activated human PBMCs and mouse splenocytes) of the same compound?
Answer: submicromolar

Question: What about the IC50 ([2]; anti-CD3/CD28-stimulation, read-out: IC50, GM-CSF secretion) of the same compound?
Answer: 185 nM and 222 nM and 212 nM

Question: What about the IC50 ([2]; anti-CD3/CD28-stimulation, read-out: IC50, IL-2 secretion) of the same compound?
Answer: 38.7 nM and 39 nM and 26.6 nM

Question: What about the IC50 ([2]; anti-CD3/CD28-stimulation, read-out: IC50, TNFα secretion) of the same compound?
Answer: 31.8 nM and 37.5 nM and 26.2 nM

Question: And the “secretion of IL-1β” value ([2]; not Sec61-dependent)?
Answer: unaffected

Question: And the “Sec61 WT - CTG (TNFa(FL))” value ([3]; 0.32 nM)?
Answer: 111 and 110 and 116

Question: What about the “Sec61 WT - CTG (TNFa(FL))” value ([3]; 1.6 nM) of the same compound?
Answer: 106 and 113 and 116

Question: What about the “Sec61 WT - CTG (TNFa(FL))” value ([3]; 8 nM) of the same compound?
Answer: 110 and 111 and 115

Question: And the “Sec61 WT - CTG (TNFa(FL))” value ([3]; 40 nM)?
Answer: 112 and 121 and 115

Question: What about the “Sec61 WT - CTG (TNFa(FL))” value ([3]; 200 nM) of the same compound?
Answer: 108 and 114 and 116

Question: What about the “Sec61 WT - CTG (TNFa(FL))” value ([3]; 1000 nM) of the same compound?
Answer: 105 and 108 and 113

Question: And the “Sec61 WT - CTG (TNFa(FL))” value ([3]; 5000 nM)?
Answer: 95 and 105 (2×)

Question: What about the “Sec61 WT - CTG (TNFa(FL))” value ([3]; 25000 nM) of the same compound?
Answer: 92 and 89 (2×)

Question: And the virus-induced cytotoxicity [4]?
Answer: blocked

Question: What about the cell viability ([5]; 0.01 uM) of the same compound?
Answer: 91.0268 and 102.167 and 114.581

Question: What about the cell viability ([5]; 0.04 uM) of the same compound?
Answer: 90.9801 and 99.0668 and 98.0954

Question: What about the cell viability ([5]; 0.12 uM) of the same compound?
Answer: 93.1234 and 96.6644 and 96.0334

Question: What about the cell viability ([5]; 0.37 uM) of the same compound?
Answer: 79.1404 and 83.8559 and 91.7442

Question: And the cell viability ([5]; 1.11 uM)?
Answer: 83.2343 and 88.2826 and 88.422

Question: And the cell viability ([5]; 3.33 uM)?
Answer: 85.0888 and 89.2631 and 88.8876

Question: And the cell viability ([5]; 10 uM)?
Answer: 76.0738 and 86.0259 and 84.7152

Question: What about the remaining activity at 0.00018303 µM ([6]; Drug nM (log10) 0.18303) of the same compound?
Answer: 84.6%

Question: And the remaining activity at 0.000660151 µM ([6]; Drug nM (log10) 0.660151)?
Answer: 76%

Question: And the remaining activity at 0.00113727 µM ([6]; Drug nM (log10) 1.13727)?
Answer: 53.5%

Question: What about the remaining activity ([6]; Drug nM (log10) 1.61439) of the same compound?
Answer: 28.5%

Question: And the remaining activity ([6]; Drug nM (log10) 2.09151)?
Answer: 12.1%

Question: And the remaining activity ([6]; Drug nM (log10) 2.56864)?
Answer: 5.08%

Question: And the remaining activity ([6]; Drug nM (log10) 3.04576)?
Answer: 2.62%

Question: And the remaining activity ([6]; Drug nM (log10) 3.52288)?
Answer: 2.32%

Question: And the remaining activity at 0.004 µM ([6]; Drug nM (log10) 4)?
Answer: 2.59%

Question: And the remaining activity at 0.00018303 µM ([7]; Drug nM (log10) 0.18303)?
Answer: 96.7%

Question: And the remaining activity at 0.000660151 µM ([7]; Drug nM (log10) 0.660151)?
Answer: 105%

Question: What about the remaining activity ([7]; Drug nM (log10) 1.61439) of the same compound?
Answer: 76.6%

Question: And the remaining activity ([7]; Drug nM (log10) 2.09151)?
Answer: 74%

Question: What about the remaining activity ([7]; Drug nM (log10) 3.04576) of the same compound?
Answer: 68%

Question: What about the remaining activity at 0.000508 µM ([7]; Drug nM (log10) -0.29409) of the same compound?
Answer: 92.5%

Question: What about the remaining activity at 0.00018303 µM ([8]; Drug nM (log10) 0.18303) of the same compound?
Answer: 85.5%

Question: And the remaining activity at 0.000660151 µM ([8]; Drug nM (log10) 0.660151)?
Answer: 69.5%

Question: What about the remaining activity at 0.00113727 µM ([8]; Drug nM (log10) 1.13727) of the same compound?
Answer: 51.6%

Question: And the remaining activity ([8]; Drug nM (log10) 1.61439)?
Answer: 27.8%

Question: And the remaining activity ([8]; Drug nM (log10) 2.09151)?
Answer: 11.4%

Question: And the remaining activity ([8]; Drug nM (log10) 2.56864)?
Answer: 4.55%

Question: What about the remaining activity ([8]; Drug nM (log10) 3.04576) of the same compound?
Answer: 2.42%

Question: And the remaining activity ([8]; Drug nM (log10) 3.52288)?
Answer: 1.93%

Question: And the remaining activity at 0.004 µM ([8]; Drug nM (log10) 4)?
Answer: 2.26%

Question: What about the remaining activity at 0.00050805 µM ([8]; Drug nM (log10) -0.29409) of the same compound?
Answer: 91.1%
